Data published in the NIST ThermoML archive (doi:10.1016/j.jct.2018.04.018).
Where “and” joins values, the source holds several entries; their conditions need not be identical. Equal entries are not always repeated.

Conditions: 101.33 kPa, Liquid

CCCCCCCC[n+]1ccn(C)c1.F[P-](F)(F)(F)(F)F [1-octyl-3-methylimidazolium hexafluorophosphate]
Conditions	mass density [kg/m3]	viscosity
369.26 K, Cone and plate viscometry	–	26.6 mPa·s
369.99 K, Cone and plate viscometry	–	26 mPa·s and 26.4 mPa·s
370.73 K, Cone and plate viscometry	–	25.4 mPa·s and 25.8 mPa·s
371.47 K, Cone and plate viscometry	–	25.2 mPa·s
371.49 K, Cone and plate viscometry	–	24.8 mPa·s
372.22 K, Cone and plate viscometry	–	24.8 mPa·s
372.23 K, Cone and plate viscometry	–	24.3 mPa·s
372.96 K, Cone and plate viscometry	–	24.3 mPa·s
372.97 K, Cone and plate viscometry	–	24.4 mPa·s
373.15 K, Concentric cylinders viscometry	–	24 mPa·s
373.15 K, Vibrating tube method	1181.63	–
373.71 K, Cone and plate viscometry	–	23.3 mPa·s and 23.7 mPa·s
374.44 K, Cone and plate viscometry	–	23.1 mPa·s
374.45 K, Cone and plate viscometry	–	22.9 mPa·s
375.19 K, Cone and plate viscometry	–	22.4 mPa·s and 22.6 mPa·s
375.94 K, Cone and plate viscometry	–	22.1 mPa·s and 22.3 mPa·s
376.68 K, Cone and plate viscometry	–	21.9 mPa·s
376.69 K, Cone and plate viscometry	–	22 mPa·s
377.41 K, Cone and plate viscometry	–	21.8 mPa·s
377.42 K, Cone and plate viscometry	–	21.6 mPa·s
378.16 K, Cone and plate viscometry	–	21.1 mPa·s
378.9 K, Cone and plate viscometry	–	20.7 mPa·s
378.91 K, Cone and plate viscometry	–	20.6 mPa·s
379.64 K, Cone and plate viscometry	–	20.3 mPa·s
379.65 K, Cone and plate viscometry	–	20.4 mPa·s
380.39 K, Cone and plate viscometry	–	19.7 mPa·s and 19.9 mPa·s
381.13 K, Cone and plate viscometry	–	19.6 mPa·s
381.14 K, Cone and plate viscometry	–	19.4 mPa·s
381.87 K, Cone and plate viscometry	–	19.2 mPa·s
381.88 K, Cone and plate viscometry	–	19 mPa·s
382.62 K, Cone and plate viscometry	–	18.5 mPa·s and 18.7 mPa·s
383.35 K, Cone and plate viscometry	–	18.2 mPa·s
383.36 K, Cone and plate viscometry	–	18.4 mPa·s
384.1 K, Cone and plate viscometry	–	18.2 mPa·s
384.11 K, Cone and plate viscometry	–	17.9 mPa·s
384.85 K, Cone and plate viscometry	–	17.7 mPa·s and 17.9 mPa·s
385.6 K, Cone and plate viscometry	–	17.4 mPa·s and 17.6 mPa·s
386.33 K, Cone and plate viscometry	–	16.8 mPa·s
386.34 K, Cone and plate viscometry	–	17 mPa·s
387.07 K, Cone and plate viscometry	–	16.6 mPa·s
387.08 K, Cone and plate viscometry	–	16.8 mPa·s
387.82 K, Cone and plate viscometry	–	16.5 mPa·s and 16.7 mPa·s
388.56 K, Cone and plate viscometry	–	16.6 mPa·s
388.57 K, Cone and plate viscometry	–	16.5 mPa·s
389.3 K, Cone and plate viscometry	–	16 mPa·s
389.32 K, Cone and plate viscometry	–	16.2 mPa·s
390.04 K, Cone and plate viscometry	–	15.8 mPa·s
390.05 K, Cone and plate viscometry	–	15.6 mPa·s
390.79 K, Cone and plate viscometry	–	15.3 mPa·s and 15.5 mPa·s
391.53 K, Cone and plate viscometry	–	15.4 mPa·s
391.54 K, Cone and plate viscometry	–	15.1 mPa·s
392.26 K, Cone and plate viscometry	–	14.7 mPa·s
392.28 K, Cone and plate viscometry	–	15.2 mPa·s
393.01 K, Cone and plate viscometry	–	14.6 mPa·s
393.02 K, Cone and plate viscometry	–	14.8 mPa·s
393.75 K, Cone and plate viscometry	–	14.5 mPa·s
393.76 K, Cone and plate viscometry	–	14.3 mPa·s
394.5 K, Cone and plate viscometry	–	14.3 mPa·s
394.51 K, Cone and plate viscometry	–	14.2 mPa·s
395.25 K, Cone and plate viscometry	–	14.1 mPa·s
395.26 K, Cone and plate viscometry	–	14 mPa·s
395.99 K, Cone and plate viscometry	–	13.9 mPa·s and 14 mPa·s
396.73 K, Cone and plate viscometry	–	13.7 mPa·s and 13.9 mPa·s
397.47 K, Cone and plate viscometry	–	13.5 mPa·s
397.48 K, Cone and plate viscometry	–	13.5 mPa·s
398.22 K, Cone and plate viscometry	–	13.2 mPa·s and 13.4 mPa·s
398.96 K, Cone and plate viscometry	–	13 mPa·s
398.97 K, Cone and plate viscometry	–	13.1 mPa·s
399.7 K, Cone and plate viscometry	–	12.9 mPa·s and 13 mPa·s
400.44 K, Cone and plate viscometry	–	12.9 mPa·s
400.45 K, Cone and plate viscometry	–	12.7 mPa·s
401.19 K, Cone and plate viscometry	–	12.6 mPa·s and 12.8 mPa·s
401.93 K, Cone and plate viscometry	–	12.3 mPa·s
401.94 K, Cone and plate viscometry	–	12.6 mPa·s
402.67 K, Cone and plate viscometry	–	12.2 mPa·s and 12.4 mPa·s
403.42 K, Cone and plate viscometry	–	12.1 mPa·s and 12.3 mPa·s
404.16 K, Cone and plate viscometry	–	12 mPa·s and 12.1 mPa·s
404.9 K, Cone and plate viscometry	–	11.7 mPa·s
404.91 K, Cone and plate viscometry	–	12 mPa·s
405.64 K, Cone and plate viscometry	–	11.5 mPa·s and 11.6 mPa·s
406.39 K, Cone and plate viscometry	–	11.3 mPa·s and 11.5 mPa·s
407.13 K, Cone and plate viscometry	–	11.2 mPa·s and 11.4 mPa·s
407.87 K, Cone and plate viscometry	–	11.3 mPa·s
407.88 K, Cone and plate viscometry	–	11.1 mPa·s
408.62 K, Cone and plate viscometry	–	10.6 mPa·s and 10.7 mPa·s
409.35 K, Cone and plate viscometry	–	10.4 mPa·s and 10.5 mPa·s
410.1 K, Cone and plate viscometry	–	10.3 mPa·s and 10.4 mPa·s
410.84 K, Cone and plate viscometry	–	10.3 mPa·s
410.85 K, Cone and plate viscometry	–	10.2 mPa·s
411.58 K, Cone and plate viscometry	–	10.1 mPa·s
411.59 K, Cone and plate viscometry	–	10.2 mPa·s
412.33 K, Cone and plate viscometry	–	10 mPa·s and 10.1 mPa·s
413.07 K, Cone and plate viscometry	–	9.6 mPa·s and 9.9 mPa·s
413.82 K, Cone and plate viscometry	–	9.6 mPa·s and 9.7 mPa·s
